In patent publication US20210253518A1, “KINASE INHIBITOR” (NISSAN CHEMICAL CORPORATION, priority 2018, published 2021):
Like-named read-outs stand apart in the source and are kept apart here.

Molecular target: T1, SGK3 (Homo sapiens, UniProt Q96BR1)
T1 sequence (Q96BR1 1-496): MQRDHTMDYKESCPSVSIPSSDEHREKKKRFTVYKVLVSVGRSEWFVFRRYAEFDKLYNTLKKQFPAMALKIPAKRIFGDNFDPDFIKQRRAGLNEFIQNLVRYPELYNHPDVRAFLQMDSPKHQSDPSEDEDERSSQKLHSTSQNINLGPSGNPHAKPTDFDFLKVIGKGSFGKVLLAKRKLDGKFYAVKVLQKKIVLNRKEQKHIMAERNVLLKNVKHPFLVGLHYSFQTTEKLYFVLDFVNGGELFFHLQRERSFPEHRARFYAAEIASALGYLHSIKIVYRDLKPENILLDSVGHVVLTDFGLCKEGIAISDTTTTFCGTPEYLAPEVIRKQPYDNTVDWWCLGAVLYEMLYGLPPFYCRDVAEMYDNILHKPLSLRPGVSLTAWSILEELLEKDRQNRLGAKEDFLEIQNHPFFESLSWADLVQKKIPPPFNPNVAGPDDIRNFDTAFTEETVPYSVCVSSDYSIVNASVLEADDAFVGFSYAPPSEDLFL
Assay: Off-chip Mobility Shift Assay (MSA method), kinase inhibition
Format: biochemical
Settings: for inhibition at 0.1 µM: read-out: inhibition (%) SGK3
Protocol: For compound k-1:B-1, inhibitory activity evaluation (calculation of 50% inhibitory concentration (IC50)) was performed on 8 kinds of kinases (CGK2, LATS2, MSK1, p70S6K, PKACα, PKACβ, SGK2, SGK3). The activity was measured using the Off-chip Mobility Shift Assay (MSA method) described below. The compound was added such that the test concentration of k-1:B-1 was in 10 steps from the final concentration of 10 μM to 0.3 nM.
As an analysis method of the data, the mean signal of the control well containing all reaction components was set to 0% inhibition, the mean signal without enzyme addition was set to 100% inhibition, and the inhibition rate was calculated from the mean signal of 2 wells of each test substance test. The IC50 value was obtained by approximating a plot based on the test substance concentration and inhibition rate to a 4 parameter logistics curve by using the Excel Solver add-in and by the non-linear least squares method.
(§1) 5 μL of k-1:B-1 solution at 4-fold concentration, 5 μL of substrate/ATP/metal solution at 4-fold concentration, and 10 μL of kinase solution at 2-fold concentration, each prepared with assay buffer (20 mM HEPES, 0.01% Triton X-100, 2 mM DTT, pH 7.5), were mixed in the wells of a polypropylene 384-well plate and reacted at room temperature for 1 or 5 hr. Successively, 70 μL of Termination Buffer (QuickScout Screening Assist MSA; Carna Biosciences) was added to discontinue the reaction. Then, the substrate peptide and the phosphorylated peptide in the reaction solution were separated and quantified by the LabChip system (Perkin Elmer). The kinase reaction was evaluated by the resultant product ratio (P/(P+S)) calculated from the substrate peptide peak height (S) and the phosphorylated peptide peak height (P).
For compounds k-1:H-7, k-1:H-1, k-1:D-1, k-1:J-1, and k-1:B-1, inhibitory rate at 100 nM was calculated on 8 kinds of kinases (CGK2, LATS2, MSK1, p70S6K, PKACα, PKACβ, SGK2, SGK3). The activity was measured using the MSA method. As an analysis method of the data, the mean signal of the control well containing all reaction components was set to 0% inhibition, the mean signal without enzyme addition was set to 100% inhibition, and the inhibition rate was calculated from the mean signal of 2 wells of each test substance test.
as §1, with “a compound” for “k-1:B-1”

Row | Structure (SMILES) | IC50 (MSA method, 10 steps from 10 μM to 0.3 nM) | inhibition at 0.1 µM (at 100 nM, MSA method) | inhibition at 0.1 µM
1 | CC/C(=N\NC(=O)CNc1cccc(O)c1)c1ccc(O)c(C)c1O [k-1:D-1] | – | – | 93.6%
2 | CC/C(=N\NC(=O)NCc1cccc(O)c1)c1ccc(O)c(C)c1O [k-1:J-1] | – | – | 82.5%

Now from value to molecule, other results behind:

Row | IC50 (MSA method, 10 steps from 10 μM to 0.3 nM) | inhibition at 0.1 µM (at 100 nM, MSA method) | Structure (SMILES) | inhibition at 0.1 µM
3 | 0.0633 µM | 65.9% | CC/C(=N\NC(=O)C(C)Nc1ccccc1)c1ccc(O)c(C)c1O (stereo not drawn) [k-1:B-1] | –
4 | – | 73.7% | CCC(=NNC(=O)CNc1ccccc1)c1ccc(O)c(C)c1O [k-1:H-1] | –
5 | – | 44.4% | CCC(=NNC(=O)C(CC)Nc1ccccc1)c1ccc(O)c(C)c1O (stereo not drawn) [k-1:H-7] | –
